Patent US10227336B2, “Pyrazole orexin receptor antagonists” (MERCK SHARP & DOHME CORP., priority 2014, dated 2019)

Columns and labels:
human orexin-2 receptor = human orexin-2 receptor (Homo sapiens (Human), UniProt O43614); assay: FLIPR Ca2+ Flux Assay, hOX2R; assay type: cell-based; settings: CHO cells expressing the human orexin-2 receptor; agonist 70 pM Ala-6,12 orexin-A
Description: The utility of the compounds in accordance with the present invention as orexin receptor OX1R and/or OX2R antagonists may be readily determined without undue experimentation by methodology well known in the art, including the “FLIPR Ca^2+ Flux Assay” (Okumura et al., Biochem. Biophys. Res. Comm. 280:976-981, 2001). In a typical experiment the OX1 and OX2 receptor antagonistic activity of the compounds of the present invention was determined in accordance with the following experimental method. For intracellular calcium measurements, Chinese hamster ovary (CHO) cells expressing the rat orexin-1 receptor or the human orexin-2 receptor, are grown in Iscove's modified DMEM containing 2 mM L-glutamine, […], 1% hypoxanthine-thymidine supplement, 100 U/ml penicillin, 100 μg/ml streptomycin and 10% heat-inactivated fetal calf serum (FCS). The cells are seeded at 20,000 cells/well into Becton-Dickinson black 384-well clear bottom sterile plates coated with poly-D-lysine. All reagents were from GIBCO-Invitrogen Corp. The seeded plates are incubated overnight at 37° C. and 5% CO2. Ala-6,12 human orexin-A as the agonist is prepared as a 1 mM stock solution in 1% bovine serum albumin (BSA) and diluted in assay buffer (HBSS containing 20 mM HEPES, 0.1% BSA and 2.5 mM probenecid, pH7.4) for use in the assay at a final concentration of 70 pM. Test compounds are prepared as 10 mM stock solution in DMSO, then diluted in 384-well plates, first in DMSO, then assay buffer. On the day of the assay, cells are washed 3 times with 100 μl assay buffer and then incubated for 60 min (37° C., 5% CO2) in 60 μl assay buffer containing 1 μM Fluo-4AM ester, 0.02% pluronic acid, and 1% BSA. The dye loading solution is then aspirated and cells are washed 3 times with 100 μl assay buffer. 30 μl of that same buffer is left in each well. Within the Fluorescent Imaging Plate Reader (FLIPR, Molecular Devices), test compounds are added to the plate in a volume of 25 μl, incubated for 5 min and finally 25 μl of agonist is added. Fluorescence is measured for each well at 1 second intervals for 5 minutes and the height of each fluorescence peak is compared to the height of the fluorescence peak induced by 70 pM Ala-6,12 orexin-A with buffer in place of antagonist. For each antagonist, IC50 value (the concentration of compound needed to inhibit 50% of the agonist response) is determined. Alternatively, compound potency can be assessed by a radioligand binding assay (described in Bergman et. al. Bioorg. Med. Chem. Lett. 2008, 18, 1425-1430) in which the inhibition constant (Ki) is determined in membranes prepared from CHO cells expressing either the OX1 or OX2 receptor. The intrinsic orexin receptor antagonist activity of a compound which may be used in the present invention may be determined by these assays.

hOX1R = hOX1R (Homo sapiens, UniProt O43613); assay: FLIPR Ca2+ Flux Assay, hOX1R; assay type: cell-based; settings: CHO cells expressing orexin-1 receptor (head: hOX1R; method: rat); agonist 70 pM Ala-6,12 orexin-A
Description: The utility of the compounds in accordance with the present invention as orexin receptor OX1R and/or OX2R antagonists may be readily determined without undue experimentation by methodology well known in the art, including the “FLIPR Ca^2+ Flux Assay” (Okumura et al., Biochem. Biophys. Res. Comm. 280:976-981, 2001). In a typical experiment the OX1 and OX2 receptor antagonistic activity of the compounds of the present invention was determined in accordance with the following experimental method. […] The cells are seeded at 20,000 cells/well into Becton-Dickinson black 384-well clear bottom sterile plates coated with poly-D-lysine. All reagents were from GIBCO-Invitrogen Corp. The seeded plates are incubated overnight at 37° C. and 5% CO2. Ala-6,12 human orexin-A as the agonist is prepared as a 1 mM stock solution in 1% bovine serum albumin (BSA) and diluted in assay buffer (HBSS containing 20 mM HEPES, 0.1% BSA and 2.5 mM probenecid, pH7.4) for use in the assay at a final concentration of 70 pM. Test compounds are prepared as 10 mM stock solution in DMSO, then diluted in 384-well plates, first in DMSO, then assay buffer. On the day of the assay, cells are washed 3 times with 100 μl assay buffer and then incubated for 60 min (37° C., 5% CO2) in 60 μl assay buffer containing 1 μM Fluo-4AM ester, 0.02% pluronic acid, and 1% BSA. The dye loading solution is then aspirated and cells are washed 3 times with 100 μl assay buffer. 30 μl of that same buffer is left in each well. Within the Fluorescent Imaging Plate Reader (FLIPR, Molecular Devices), test compounds are added to the plate in a volume of 25 μl, incubated for 5 min and finally 25 μl of agonist is added. Fluorescence is measured for each well at 1 second intervals for 5 minutes and the height of each fluorescence peak is compared to the height of the fluorescence peak induced by 70 pM Ala-6,12 orexin-A with buffer in place of antagonist. For each antagonist, IC50 value (the concentration of compound needed to inhibit 50% of the agonist response) is determined. Alternatively, compound potency can be assessed by a radioligand binding assay (described in Bergman et. al. Bioorg. Med. Chem. Lett. 2008, 18, 1425-1430) in which the inhibition constant (Ki) is determined in membranes prepared from CHO cells expressing either the OX1 or OX2 receptor. The intrinsic orexin receptor antagonist activity of a compound which may be used in the present invention may be determined by these assays.

Chain of human orexin-2 receptor (O43614 whole entry): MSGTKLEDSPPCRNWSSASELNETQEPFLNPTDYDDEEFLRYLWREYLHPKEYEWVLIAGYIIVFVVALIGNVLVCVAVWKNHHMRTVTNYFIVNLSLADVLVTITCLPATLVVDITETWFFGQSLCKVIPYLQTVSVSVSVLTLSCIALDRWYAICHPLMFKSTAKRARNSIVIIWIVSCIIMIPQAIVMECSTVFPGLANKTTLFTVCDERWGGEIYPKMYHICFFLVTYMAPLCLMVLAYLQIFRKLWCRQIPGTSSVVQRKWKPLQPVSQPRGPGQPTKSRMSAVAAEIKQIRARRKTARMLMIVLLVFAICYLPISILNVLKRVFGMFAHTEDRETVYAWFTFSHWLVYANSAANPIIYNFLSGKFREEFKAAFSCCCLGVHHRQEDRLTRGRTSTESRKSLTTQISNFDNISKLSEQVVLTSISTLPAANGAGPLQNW

Row | Structure (SMILES) | IC50 (human orexin-2 receptor) [nM] | IC50 (hOX1R) [nM]
1 | CCn1cc([C@@H]2CC[C@@H](C)N(C(=O)c3ccccc3-n3nccn3)C2)cn1 [Example 1, (2R,5S)-5-(1-Ethyl-1H-pyrazol-4-yl)-2-methyl-1-{[2-(2H-1,2,3-triazol-2-yl)phenyl]carbonyl}piperidine] | 139 | > 10000
2 | CC(C)n1cc([C@@H]2CC[C@@H](C)N(C(=O)c3ccccc3-n3nccn3)C2)cn1 [Example 2, (2R,5S)-2-methyl-5-[1-(1-methylethyl)-1H-pyrazol-4-yl]-1-1{[2-(2H-1,2,3-triazol-2-yl)phenyl]carbonyl}piperidine] | 34 | 3410
3 | C[C@@H]1CC[C@@H](c2cnn(CC3CC3)c2)CN1C(=O)c1ccccc1-n1nccn1 [Example 3, (2R,5S)-5-[1-(cyclopropylmethyl)-1H-pyrazol-4-yl]-2-methyl-1-{[2-(2H-1,2,3-triazol-2-yl)phenyl]carbonyl}piperidine] | 124 | 7710
4 | C[C@@H]1CC[C@@H](c2cnn(C3CCCC3)c2)CN1C(=O)c1ccccc1-n1nccn1 [Example 4, (2R,5S)-5-(1-cyclopentyl-1H-pyrazol-4-yl)-2-methyl-1-{[2-(2H-1,2,3-triazol-2-yl)phenyl]carbonyl}piperidine] | 39 | 1430
5 | C[C@@H]1CC[C@@H](c2cnn(CC(F)(F)F)c2)CN1C(=O)c1ccccc1-n1nccn1 [Example 5, (2R,5S)-2-methyl-1-{[2-(2H-1,2,3-triazol-2-yl)phenyl]carbonyl}-5-[1-(2,2,2-trifluoroethyl)-1H-pyrazol-4-yl]piperidine] | 75 | > 10000
6 | C[C@@H]1CC[C@@H](c2cnn(CC(F)F)c2)CN1C(=O)c1ccccc1-n1nccn1 [Example 6, (2R,5S)-5-[1-(2,2-difluoroethyl)-1H-pyrazol-4-yl]-2-methyl-1-{[2-(2H-1,2,3-triazol-2-yl)phenyl]carbonyl}piperidine] | 183 | > 10000
7 | COC(=O)C(C)(C)n1cc([C@@H]2CC[C@@H](C)N(C(=O)c3ccccc3-n3nccn3)C2)cn1 [Example 7, methyl 2-methyl-2-{4-[(3S,6R)-6-methyl-1-{[2-(2H-1,2,3-triazol-2-yl)phenyl]carbonyl}piperidin-3-yl]-1H-pyrazol-1-yl}propanoate] | 46 | 3050
8 | C[C@@H]1CC[C@@H](c2cnn(C3CCC3)c2)CN1C(=O)c1ccccc1-n1nccn1 [Example 8, (2R,5S)-5-(1-cyclobutyl-1H-pyrazol-4-yl)-2-methyl-1-{[2-(2H-1,2,3-triazol-2-yl)phenyl]carbonyl}piperidine] | 49 | 3440
9 | C[C@@H]1CC[C@@H](c2cnn(C3CCOC3)c2)CN1C(=O)c1ccccc1-n1nccn1 (stereo partly drawn) [Example 9, (2R,5S)-2-methyl-5-[1-(tetrahydrofuran-3-yl)-1H-pyrazol-4-yl]-1-{[2-(2H-1,2,3-triazol-2-yl)phenyl]carbonyl}piperidine] | 600 | > 10000
10 | C[C@@H]1CC[C@@H](c2cnn(CC(C)(C)O)c2)CN1C(=O)c1ccccc1-n1nccn1 [Example 10, 2-Methyl-1-{4-[(3S,6R)-6-methyl-1-{[2-(2H-1,2,3-triazol-2-yl)phenyl]carbonyl}piperidin-3-yl]-1H-pyrazol-1-yl}propan-2-ol] | 197 | > 10000
11 | C[C@@H]1CC[C@@H](c2cnn(C3CC3)c2)CN1C(=O)c1ccccc1-n1nccn1 [Example 11, (2R,5S)-5-(1-Cyclopropyl-1H-pyrazol-4-yl)-2-methyl-1-{[2-(2H-1,2,3-triazol-2-yl)phenyl]carbonyl}piperidine] | 56 | > 10000
12 | CC(C)n1cc([C@@H]2CC[C@@H](C)N(C(=O)c3ccsc3-n3nccn3)C2)cn1 [Example 12, (2R,5S)-2-Methyl-5-[1-(1-methylethyl)-1H-pyrazol-4-yl]-1-{[2-(2H-1,2,3-triazol-2-yl)thiophen-3-yl]carbonyl}piperidine] | 301 | > 10000
13 | CC(C)n1cc([C@@H]2CC[C@@H](C)N(C(=O)c3ccsc3-c3ncccn3)C2)cn1 [Example 13, 2[3-({(2R,5S)-2-methy1-5-[1-(1-methylethyl)-1H-pyrazol-4-yl]piperidin-1-yl}carbonyl)thiophen-2-yl]pyrimidine] | 155 | > 10000
14 | CC(C)n1cc([C@@H]2CC[C@@H](C)N(C(=O)c3cscc3-n3nccn3)C2)cn1 [Example 14, (2R,5S)-2-methyl-5-[1-(1-methylethyl)-1H-pyrazol-4-yl]-1-{[4-(2H-1,2,3-triazol-2-yl)thiophen-3-yl]carbonyl}piperidine] | 430 | > 10000
15 | CC(C)n1cc([C@@H]2CC[C@@H](C)N(C(=O)c3ccc(F)cc3-n3nccn3)C2)cn1 [Example 15, (2R,5S)-1-{[4-fluoro-2-(2H-1,2,3-triazol-2-yl)phenyl]carbonyl}-2-methyl-5-[1-(1-methylethyl)-1H-pyrazol-4-yl]piperidine] | 113 | > 10000
16 | CC(C)n1cc([C@@H]2CC[C@@H](C)N(C(=O)c3ccccc3-n3ncnn3)C2)cn1 [Example 16, (2R,5S)-2-methyl-5-[1-(1-methylethyl)-1H-pyrazol-4-yl]-1-{[2-(2H-tetrazol-2-yl)phenyl]carbonyl}piperidine] | 259 | > 10000
